From PMC7496508, “Modular Medical Imaging Agents Based on Azide–Alkyne Huisgen Cycloadditions: Synthesis and Pre‐Clinical Evaluation of ^18F‐Labeled PSMA‐Tracers for Prostate Cancer Imaging” (Chemistry (Weinheim an Der Bergstrasse, Germany), 2020)
Where “and” joins values, the source holds several entries; their conditions need not be identical. Equal entries are not always repeated.

Experiments:
Assay type in all cases: in vivo, Balb/c nude mice
[1] = tested on: PC3 (PSMA-) xenografts; experiment: ex vivo organ distribution, PC3 xenograft mice; conditions: dissected after PET scan
Procedure: (§1) All groups were evaluated by visual assessment of the PET image and the percentage injected dose per gram (%ID g^−1).
(§2) The animal experiments were all performed according to the ethical guidelines and approved by the local animal welfare committee of the University of Groningen (IvD number 15166-06-001. All animals were caged separately in individually ventilated cages.
(§3) 7-12 week old immune deficient Balb/c nude mice were inoculated with 200 µL of a 1:1 suspension of medium containing approximately 4 x10^6 LNCaP cells (PSMA positive cells) or 5 x 10^6 PC3 cells (PSMA-negative cells) in RPMI-1640, and Matrigel Basement Membrane Matrix High concentration. The cells were subcutaneously inoculated on the right shoulder.
After 3 to 5 weeks for LNCaP-xenografts, 2-3 weeks for PC3-xenografts or when a tumor size of 1cm3 was reached, the animals were transported to the PET imaging facility. […]
(§4) Animals were anesthetized at 5 % isoflurane and maintained under 2 % isoflurane enriched with O2. The dynamic PET scan was started within 5 min after tracer injection with an acquisition time of 90 min. The static scan was performed 60 min after tracer injection with an acquisition time of 30 min.
(§5) 7.2. Organ distribution and Metabolite analysis.
(§6) After sacrificing the animals, the organs were dissected and measured in a γ-counter. The obtained CPM’s were normalized to %ID/g (Table shown in main text). […]
(§7) In order to check for the significant differences, we also checked for the Cohen’s d, a measurement to determine the effect size. It is calculated on the following formula:
(§8) Cohen′sD = Mean1− Mean2 . […]

[2] = metabolite analysis of plasma and urine by TLC; conditions: PC3- or LNCaP-xenograft animals
From the text: as §5
After sacrificing the animals, the organs were dissected and measured in a γ-counter. The obtained CPM’s were normalized to %ID/g (Table shown in main text). For the metabolite analysis, urine and plasma samples were pipetted onto a TLC plate and run in a solution of 10 % MeCN in H2O and read out in an Amersham Typhoon (GE).Additionally to […]
metabolite analysis of two article, the image quantification based on the standardized different animals bearing a uptake value (SUV ) was performed. The obtained data PC3- or a LNCaP-xenograft. meanBW While in Plasma, no are represented in the following Table S6. Here, we show the metabolite were formed, the […]
results obtained by image quantification of the 4 different conclusive. groups. Comparison of tumor uptake in PSMA-expressing
LNCaP xenografts of (1) [68Ga]PSMA-11 and (2) [18F]PSMA-MIC01 (the same animals). (3) the PSMA-negative PC3 xenograft. (4) Confirmation of binding specificity of radiotracer [18F]PSMA-MIC01, by blocking PSMA in LNCaP-xenografts prior to radiotracer injection] using the potent PSMA-inhibitor 2-PMPA.
as §7, §8
(1 picture or pasted object on this page, not shown here)

[3] = tested on: LNCaP (PSMA+) xenografts; experiment: ex vivo organ distribution, LNCaP xenograft mice
Procedure: as §1, §2, §3
(§9) After 3 to 5 weeks for LNCaP-xenografts, 2-3 weeks for PC3-xenografts or when a tumor size of 1cm3 was reached, the animals were transported to the PET imaging facility. For the […]
as §4, with “prepared and 100 µL were injected via penile vein injection 30 min prior to the tracer injection. Animals” for “Animals”
as §5, §6, §7, §8

[4] = tested on: PC3 (PSMA-) xenografts; experiment: PET image quantification of organ distribution (SUVmeanBW), PC3 xenograft mice
Procedure: (§10) The in vivo imaging potential of [^18F]PSMA‐MIC01 was evaluated using a murine animal model (see Supporting Information for experimental details).65 This was performed in a procedure that involved the study of the tumor uptake, binding specificity and comparison to [^68Ga]PSMA‐11. Tumor uptake of [^18F]PSMA‐MIC01 was assessed by performing a 90 min dynamic PET scan.
as §2, §3, §9
as §4, with “prepared and 100 µL were injected via penile vein injection 30 min prior to the tracer injection. Animals were” for “Animals were”, “30 min. […]” for “30 min.”
as §7, §8

[5] = tested on: LNCaP (PSMA+) xenografts; experiment: PET image quantification of organ distribution (SUVmeanBW), LNCaP xenograft mice
Procedure: as §10, §2, §3, §9
as §4, with “prepared and 100 µL were injected via penile vein injection 30 min prior to the tracer injection. Animals were” for “Animals were”, “30 min. […]” for “30 min.”
as §7, §8

[6] = LNCaP (PSMA+) xenograft blocked with 2-PMPA 30 min prior to tracer
[7] = LNCaP (PSMA+) xenograft, dissected after PET scan
[8] = LNCaP-blocked (PSMA+), 2-PMPA prior to tracer

O=C(O)CC[C@H](NC(=O)N[C@@H](CCCCNC(=O)c1ccc(-c2cn(CCOCCOCC[18F])nn2)cc1)C(=O)O)C(=O)O [[^18F]PSMA‐MIC01]
ex vivo uptake bone [1]: 0.5±0.2 %ID g^−1
ex vivo uptake brain [1]: 0.2±0.1 %ID g^−1
ex vivo uptake heart [1]: 1.0±0.6 %ID g^−1
ex vivo uptake kidney [1]: 39.8±28.8 %ID g^−1
ex vivo uptake large intestine [1]: 1.4±0.5 %ID g^−1
ex vivo uptake liver [1]: 9.4±2.9 %ID g^−1
ex vivo uptake lungs [1]: 2.1±1.1 %ID g^−1
ex vivo uptake muscles [1]: 0.6±0.3 %ID g^−1
ex vivo uptake pancreas [1]: 0.8±0.3 %ID g^−1
ex vivo uptake plasma [1]: 6.0±3.5 %ID g^−1
ex vivo uptake salivary glands [1]: 1.1±0.6 %ID g^−1
ex vivo uptake small intestine [1]: 1.3±0.6 %ID g^−1
ex vivo uptake spleen [1]: 3.1±1.4 %ID g^−1
ex vivo uptake stomach [1]: 1.2±0.6 %ID g^−1
ex vivo uptake tumor [1]: 3.0±1.8 %ID g^−1 and 3.0±1.7 %ID g^−1
ex vivo uptake urine [1]: 184±260 %ID g^−1
ex vivo uptake whole blood [1]: 3.4±1.8 %ID g^−1
metabolites in plasma [2]: no
ex vivo uptake bone [3, 6]: 0.3±0.1 %ID g^−1
ex vivo uptake brain [3, 6]: 0.1±0.0 %ID g^−1
ex vivo uptake heart [3, 6]: 0.7±0.5 %ID g^−1
ex vivo uptake kidney [3, 6]: 28.5±20.7 %ID g^−1
ex vivo uptake large intestine [3, 6]: 0.9±0.3 %ID g^−1
ex vivo uptake liver [3, 6]: 5.7±1.4 %ID g^−1
ex vivo uptake lungs [3, 6]: 1.1±0.3 %ID g^−1
ex vivo uptake muscles [3, 6]: 0.3±0.1 %ID g^−1
ex vivo uptake pancreas [3, 6]: 0.5±0.2 %ID g^−1
ex vivo uptake plasma [3, 6]: 3.8±1.3 %ID g^−1
ex vivo uptake salivary glands [3, 6]: 1.0±0.8 %ID g^−1
ex vivo uptake small intestine [3, 6]: 1.2±1.5 %ID g^−1
ex vivo uptake spleen [3, 6]: 1.0±0.2 %ID g^−1
ex vivo uptake stomach [3, 6]: 7.3±16.4 %ID g^−1
ex vivo uptake tumor [3, 6]: 2.8±0.8 %ID g^−1
ex vivo uptake urine [3, 6]: 644±627 %ID g^−1
ex vivo uptake whole blood [3, 6]: 1.8±0.6 %ID g^−1
ex vivo uptake bone [3, 7]: 0.2±0.1 %ID g^−1
ex vivo uptake brain [3, 7]: 0.1±0.0 %ID g^−1
ex vivo uptake heart [3, 7]: 0.6±0.4 %ID g^−1
ex vivo uptake kidney [3, 7]: 42.0±9.0 %ID g^−1
ex vivo uptake large intestine [3, 7]: 1.4±1.5 %ID g^−1
ex vivo uptake liver [3, 7]: 5.6±1.3 %ID g^−1
ex vivo uptake lungs [3, 7]: 1.3±0.5 %ID g^−1
ex vivo uptake muscles [3, 7]: 0.5±0.2 %ID g^−1
ex vivo uptake pancreas [3, 7]: 0.8±0.7 %ID g^−1
ex vivo uptake plasma [3, 7]: 0.9±5.2 %ID g^−1
ex vivo uptake salivary glands [3, 7]: 0.5±0.3 %ID g^−1
ex vivo uptake small intestine [3, 7]: 1.6±2.1 %ID g^−1
ex vivo uptake spleen [3, 7]: 5.8±3.4 %ID g^−1
ex vivo uptake stomach [3, 7]: 0.6±0.2 %ID g^−1
ex vivo uptake tumor [3, 7]: 11.8±4.2 %ID g^−1 and 11.7±4.2 %ID g^−1
ex vivo uptake urine [3, 7]: 314±420 %ID g^−1
ex vivo uptake whole blood [3, 7]: 1.6±1.3 %ID g^−1
SUVmeanBW Bladder [4]: 3.9 ± 0.4
SUVmeanBW Brain [4]: 0.2 ± 0.1
SUVmeanBW Heart [4]: 0.7 ± 0.2
SUVmeanBW Kidney [4]: 5.1 ± 1.9
SUVmeanBW Liver [4]: 1.5 ± 0.5
SUVmeanBW Muscle [4]: 0.3 ± 0.1
SUVmeanBW Tumor [4]: 0.4 ± 0.2
SUVmeanBW Bladder ([5]; LNCaP (PSMA+) xenograft): 10.2 ± 6.7
SUVmeanBW Brain ([5]; LNCaP (PSMA+) xenograft): 0.2 ± 0.1
SUVmeanBW Heart ([5]; LNCaP (PSMA+) xenograft): 0.4 ± 0.2
SUVmeanBW Kidney ([5]; LNCaP (PSMA+) xenograft): 4.4 ± 1.4
SUVmeanBW Liver ([5]; LNCaP (PSMA+) xenograft): 0.8 ± 0.2
SUVmeanBW Muscle ([5]; LNCaP (PSMA+) xenograft): 0.2 ± 0.1
SUVmeanBW Tumor ([5]; LNCaP (PSMA+) xenograft): 0.6 ± 0.4
SUVmeanBW Bladder [5, 8]: 20.7 ± 12.4
SUVmeanBW Brain [5, 8]: 0.1 ± 0.0
SUVmeanBW Heart [5, 8]: 0.4 ± 0.1
SUVmeanBW Kidney [5, 8]: 2.6 ± 1.7
SUVmeanBW Liver [5, 8]: 0.8 ± 0.4
SUVmeanBW Muscle [5, 8]: 0.2 ± 0.1
SUVmeanBW Tumor [5, 8]: 0.3 ± 0.1
